Measurements as given in ChEMBL document CHEMBL1201862, “PubChem BioAssay data set” (2004).
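Grown in 96-well plates, cells were treated for 48 hours with each compound at five concentrations. Insufficient inhibition: endpoint recorded as highest concentration tested. The concentration for 50% growth inhibition is given as GI50.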 The source made the active and inactive calls. Rule as the data show it: active = GI50 up to about 1.1 µM and inactive = higher.

Assays:
Experiment in all cases: inhibition of tumour cell growth, NCI panel, 48 h
[1] = tested on: RXF 393
[2] = tested on: HCT-116
[3] = tested on: A549
[4] = tested on: UACC-257
[5] = tested on: SK-MEL-2
[6] = tested on: SK-OV-3
[7] = tested on: KM12
[8] = tested on: K562
[9] = tested on: Malme-3M
[10] = tested on: SN12C
[11] = tested on: MOLT-4
[12] = tested on: OVCAR-8
[13] = tested on: HT-29
[14] = tested on: CCRF-CEM
[15] = tested on: NCI-H460
[16] = tested on: SW-620
[17] = tested on: OVCAR-5
[18] = tested on: EKVX
[19] = tested on: COLO 205
[20] = tested on: RPMI-8226

SMILES	GI50 [1]	GI50 [2]	GI50 [3]	GI50 [4]	GI50 [5]	GI50 [6]	GI50 [7]	GI50 [8]	GI50 [9]	GI50 [10]	GI50 [11]	GI50 [12]	GI50 [13]	GI50 [14]	GI50 [15]	GI50 [16]	GI50 [17]	GI50 [18]	GI50 [19]	GI50 [20]
CN(C)c1nc(N(C)C)nc(N(C)CN(C)c2ccccc2)n1	> 100 µM (inactive)	> 100 µM (inactive)	> 100 µM (inactive)	> 100 µM (inactive)	> 100 µM (inactive)	> 100 µM (inactive)	> 100 µM (inactive)	> 100 µM (inactive)	> 100 µM (inactive)	> 100 µM (inactive)	> 100 µM (inactive)	> 100 µM (inactive)	> 100 µM (inactive)	> 100 µM (inactive)	> 100 µM (inactive)					
Cc1cc(C)n2c(-c3ccccc3)c(C)cc2n1	39.4 µM (inactive)	67.8 µM (inactive)	75.5 µM (inactive)	> 100 µM (inactive)	15.3 µM (inactive)	60.3 µM (inactive)	60.8 µM (inactive)	8.17 µM (inactive)	49.4 µM (inactive)	50.5 µM (inactive)		49.1 µM (inactive)	25.8 µM (inactive)	1.09 µM (active)	37.3 µM (inactive)	34 µM (inactive)	> 100 µM (inactive)	64 µM (inactive)	43.5 µM (inactive)	
Cc1cc(NS(=O)(=O)c2ccc(NC(=O)c3cccc4c(Nc5ccc(S(N)(=O)=O)cc5)c5ccccc5nc34)cc2)no1	> 100 µM (inactive)	> 100 µM (inactive)		> 100 µM (inactive)	> 100 µM (inactive)	> 100 µM (inactive)	57 µM (inactive)	98.2 µM (inactive)	> 100 µM (inactive)	> 100 µM (inactive)	> 100 µM (inactive)		> 100 µM (inactive)	85.9 µM (inactive)	> 100 µM (inactive)		> 100 µM (inactive)	96.8 µM (inactive)		87.9 µM (inactive)
NNc1nnc(CCCCCCCCc2nnc(NN)n2N)n1N	> 100 µM (inactive)	> 100 µM (inactive)	> 100 µM (inactive)	> 100 µM (inactive)	84.5 µM (inactive)	> 100 µM (inactive)	> 100 µM (inactive)	14 µM (inactive)		> 100 µM (inactive)	33.2 µM (inactive)	17.1 µM (inactive)	> 100 µM (inactive)	> 100 µM (inactive)	> 100 µM (inactive)	> 100 µM (inactive)	> 100 µM (inactive)	> 100 µM (inactive)	> 100 µM (inactive)	
CCN(/N=C1\CC2C=CCN(C2)C(=O)Cc2c1[nH]c1ccccc21)S(=O)(=O)c1ccc(C)cc1 (configuration not stated)		85.9 µM (inactive)	49.8 µM (inactive)	94.2 µM (inactive)	88.1 µM (inactive)		69.8 µM (inactive)	71.6 µM (inactive)	> 100 µM (inactive)	86.7 µM (inactive)	59.4 µM (inactive)	78 µM (inactive)		> 100 µM (inactive)		78 µM (inactive)		40.3 µM (inactive)	68.2 µM (inactive)	63.1 µM (inactive)
CCOC(=O)C1=C(Nc2cccc(OC)c2)OCC1=O	> 100 µM (inactive)	> 100 µM (inactive)		> 100 µM (inactive)	> 100 µM (inactive)	> 100 µM (inactive)	> 100 µM (inactive)	> 100 µM (inactive)			> 100 µM (inactive)	> 100 µM (inactive)	> 100 µM (inactive)	> 100 µM (inactive)	> 100 µM (inactive)	> 100 µM (inactive)		> 100 µM (inactive)	> 100 µM (inactive)	> 100 µM (inactive)
Cc1ccc(NC(=O)c2cccc([N+](=O)[O-])c2O)c(C)c1		28.6 µM (inactive)	15.9 µM (inactive)	14 µM (inactive)	7.73 µM (inactive)	22.9 µM (inactive)	27.7 µM (inactive)	21 µM (inactive)	1.7 µM (inactive)	15.8 µM (inactive)	19.3 µM (inactive)	22.9 µM (inactive)	29.4 µM (inactive)	17.9 µM (inactive)	26.4 µM (inactive)	28.4 µM (inactive)	20.5 µM (inactive)	17.1 µM (inactive)	23.9 µM (inactive)	11.6 µM (inactive)
NC(=O)Oc1ccccc1 [CARBAMIC ACID PHENYL ESTER]	> 100 µM (inactive)	> 100 µM (inactive)	> 100 µM (inactive)	> 100 µM (inactive)		> 100 µM (inactive)	> 100 µM (inactive)	> 100 µM (inactive)		> 100 µM (inactive)	> 100 µM (inactive)	> 100 µM (inactive)	> 100 µM (inactive)	> 100 µM (inactive)	> 100 µM (inactive)	> 100 µM (inactive)			> 100 µM (inactive)	
